Active and inactive are the calls of the source.
What was measured:
[1] = inhibitors of non-replicating M. tuberculosis, dose response, luciferase, dry powder (AID 651619); format: functional; conditions: Mycobacterium tuberculosis
[2] = cytotoxicity in HeLa cells, dose response, cytotoxicity control, cell-based, plate reader, dry powder (AID 651946); format: functional
[3] = inhibitors of non-replicating M. tuberculosis, dose response, luciferase, dry powder (AID 651620); format: functional; conditions: Mycobacterium tuberculosis
[4] = molecular target: Endoplasmic reticulum aminopeptidase 1 (Homo sapiens, UniProt Q9NZ08); assay: ERAP1 aminopeptidase inhibitors, dose response, biochemical, cherry-pick, set 2, plate reader (AID 743314)
[5] = molecular target: T1, Oxysterols receptor LXR-beta (Homo sapiens, UniProt P55055); format: functional, cell-based;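 also: agonist activity at LXR measured by a cell-based luminescence readout across a dose range, run as a counterscreen for daf-12 agonists; HEK293 cells with Gal4-LXR fusion and GAL4-driven luciferase reporter; potency for activation of Gal4-LXR reporter so compounds are agonists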
T1 sequence (P55055 whole entry): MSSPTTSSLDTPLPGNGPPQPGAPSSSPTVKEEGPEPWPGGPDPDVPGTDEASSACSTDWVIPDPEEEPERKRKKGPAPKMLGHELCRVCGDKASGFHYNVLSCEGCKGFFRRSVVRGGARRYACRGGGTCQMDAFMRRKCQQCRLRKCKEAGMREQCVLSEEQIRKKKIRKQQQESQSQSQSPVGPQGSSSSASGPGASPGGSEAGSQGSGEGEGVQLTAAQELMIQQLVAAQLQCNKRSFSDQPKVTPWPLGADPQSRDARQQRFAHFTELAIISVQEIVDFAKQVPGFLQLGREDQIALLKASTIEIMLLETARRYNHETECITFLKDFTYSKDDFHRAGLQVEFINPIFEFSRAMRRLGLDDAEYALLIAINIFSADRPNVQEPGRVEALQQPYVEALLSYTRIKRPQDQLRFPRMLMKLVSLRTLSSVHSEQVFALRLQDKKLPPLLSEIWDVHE

[6] = molecular target: Disintegrin and metalloproteinase domain-containing protein 17 (Homo sapiens, UniProt P78536); assay: exosite inhibitors of ADAM17, dose response, biochemical (AID 743260)
[7] = ADAM10 protease inhibitors, dose response, selectivity assay for ADAM17 exosite inhibitor project, biochemical, FRET peptide substrate, recombinant human ADAM10 (AID 743259);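 also: ADAM10 enzyme cleaving a FRET peptide substrate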
[8] = miR-122 activators in hepatoma reporter cells, dose response, cell-based, Huh7 psiCHECK-miR122, Renilla luciferase, cherry-picked (AID 651956); format: functional;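 also: huh7 hepatoma cells stably carrying a psiCHECK-2 miR-122 sensor plasmid; renilla luciferase signal reporting endogenous miR-122 activity after 48 h compound exposure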
[9] = HEK293T cytotoxicity, dose response, cytotoxicity control for miR-122 modulator project, cell-based, activator set, cherry-pick (AID 720690); format: functional;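 also: HEK293T human cells scored for general mammalian cytotoxicity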
[10] = HEK293 cell cytotoxicity, dose response, cytotoxicity control, cherry-picks, set 5 (AID 1053117); format: functional, cell-based
[11] = A549 cell cytotoxicity, dose response, cytotoxicity control, cherry-picks, 26 µM top dose (AID 1053119); format: functional, cell-based
[12] = inhibitors of firefly luciferase expression or activity, dose response, H4 neuroglioma cells, luminescence (AID 1990); format: functional, cell-based
[13] = Luminescence Cell-Based Dose Response HTS to Identify Inhibitors of 5'UTR Stem-Loop Driven Prion Protein mRNA Translation in H4 Neuroglioblastoma Cells. [Related pubchem assays: 1827 (Project Summary), 1813 (Primary HTS)]; format: functional
[14] = inhibitors of SNCA 5'UTR-driven reporter translation, confirmation, H4 neuroglioma cells, luminescence (AID 1988); format: functional, cell-based
[15] = molecular target: T2, Ubiquitin-conjugating enzyme E2 N (Homo sapiens, UniProt P61088); format: functional;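 also: Dose-response confirmation in a TR-FRET assay detecting UBC13-driven polyubiquitin chain formation, inhibition measured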
T2 sequence (P61088 whole entry): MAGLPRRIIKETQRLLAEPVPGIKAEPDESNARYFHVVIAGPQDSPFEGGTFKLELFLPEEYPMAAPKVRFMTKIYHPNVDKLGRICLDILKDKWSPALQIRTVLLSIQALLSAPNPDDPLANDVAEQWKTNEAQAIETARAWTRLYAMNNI

[16] = HeLa cell cytotoxicity, dose response, cytotoxicity control for MgcRacGAP inhibitor project (AID 624300); format: functional
[17] = molecular target: T3, Rac GTPase-activating protein 1 (Homo sapiens, UniProt Q9H0H5); assay: MgcRacGAP GTPase-activating activity inhibitors, confirmation, biochemical, ADP Hunter fluorescence, primary and confirmatory (AID 624330); format: functional
T3 sequence (Q9H0H5 whole entry): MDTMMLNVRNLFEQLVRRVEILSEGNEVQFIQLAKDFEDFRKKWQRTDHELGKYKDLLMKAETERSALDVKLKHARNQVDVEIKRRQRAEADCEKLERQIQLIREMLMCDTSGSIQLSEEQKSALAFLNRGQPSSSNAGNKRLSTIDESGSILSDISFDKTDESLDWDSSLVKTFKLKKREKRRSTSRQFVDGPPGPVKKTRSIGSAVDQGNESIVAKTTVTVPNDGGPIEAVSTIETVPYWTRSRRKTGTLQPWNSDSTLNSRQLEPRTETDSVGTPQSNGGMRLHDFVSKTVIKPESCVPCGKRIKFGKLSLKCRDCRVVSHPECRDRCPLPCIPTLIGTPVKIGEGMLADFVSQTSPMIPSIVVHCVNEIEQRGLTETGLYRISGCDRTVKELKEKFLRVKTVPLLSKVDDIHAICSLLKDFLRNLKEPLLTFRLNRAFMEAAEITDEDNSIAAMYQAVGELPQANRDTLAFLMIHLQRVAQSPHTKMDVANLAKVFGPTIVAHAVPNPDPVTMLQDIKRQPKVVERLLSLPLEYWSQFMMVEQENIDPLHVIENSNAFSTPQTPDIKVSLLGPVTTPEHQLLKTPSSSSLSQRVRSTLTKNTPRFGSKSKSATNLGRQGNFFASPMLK

Paired box protein Pax-8 = Paired box protein Pax-8 (Homo sapiens, UniProt Q06710); assay: inhibitors of PAX8-driven TPO luciferase reporter, dose response, RMG-I cells, cherry-pick (AID 687027); format: functional, cell-based;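 also: luciferase reporter driven by Pax8 target thyroperoxidase promoter measured by SteadyGlo luminescence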
[18] = non-specific cell cytotoxicity, dose response, cytotoxicity control for PAX8 inhibitor project, plate reader, dry powder samples (AID 743021); format: functional, cell-based
[19] = molecular target: T4, Replicative DNA helicase DnaB (Mycobacterium tuberculosis, UniProt P9WMR3); assay: DnaB intein splicing inhibitors, dose response, biochemical, cell-free fluorescence (AID 449749); format: functional
T4 sequence (P9WMR3 whole entry): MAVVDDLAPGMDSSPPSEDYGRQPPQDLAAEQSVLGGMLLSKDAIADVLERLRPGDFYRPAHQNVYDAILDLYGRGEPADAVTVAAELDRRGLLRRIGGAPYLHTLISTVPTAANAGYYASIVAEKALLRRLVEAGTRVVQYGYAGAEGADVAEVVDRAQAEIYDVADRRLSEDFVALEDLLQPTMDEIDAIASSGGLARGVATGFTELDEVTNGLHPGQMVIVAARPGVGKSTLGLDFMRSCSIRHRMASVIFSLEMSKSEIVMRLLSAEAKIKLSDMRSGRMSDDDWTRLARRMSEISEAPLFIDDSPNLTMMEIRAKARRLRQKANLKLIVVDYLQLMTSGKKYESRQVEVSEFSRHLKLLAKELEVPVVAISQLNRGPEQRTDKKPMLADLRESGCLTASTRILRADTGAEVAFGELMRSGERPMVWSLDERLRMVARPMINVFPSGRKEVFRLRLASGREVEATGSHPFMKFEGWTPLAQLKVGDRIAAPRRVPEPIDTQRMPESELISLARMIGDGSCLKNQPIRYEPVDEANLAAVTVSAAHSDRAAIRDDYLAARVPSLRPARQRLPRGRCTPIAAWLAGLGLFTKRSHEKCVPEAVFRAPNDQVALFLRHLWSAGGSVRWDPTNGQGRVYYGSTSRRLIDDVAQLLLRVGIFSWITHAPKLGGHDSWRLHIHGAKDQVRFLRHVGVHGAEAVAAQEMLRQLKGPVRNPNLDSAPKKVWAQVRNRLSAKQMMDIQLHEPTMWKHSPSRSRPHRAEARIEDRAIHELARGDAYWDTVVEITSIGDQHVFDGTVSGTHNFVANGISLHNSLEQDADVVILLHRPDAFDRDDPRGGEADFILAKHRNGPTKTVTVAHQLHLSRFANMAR

Protein RecA = molecular target: T5, Protein RecA (Mycobacterium tuberculosis, UniProt P9WHJ3); assay: Fluorescence Cell-Free Homogeneous Dose Retest to Identify Inhibitors of RecA-Intein Splicing Activity. [Related pubchem assays (depositor defined):AID2097, AID2223, AID489010, AID492950]; format: functional
T5 sequence (P9WHJ3 whole entry): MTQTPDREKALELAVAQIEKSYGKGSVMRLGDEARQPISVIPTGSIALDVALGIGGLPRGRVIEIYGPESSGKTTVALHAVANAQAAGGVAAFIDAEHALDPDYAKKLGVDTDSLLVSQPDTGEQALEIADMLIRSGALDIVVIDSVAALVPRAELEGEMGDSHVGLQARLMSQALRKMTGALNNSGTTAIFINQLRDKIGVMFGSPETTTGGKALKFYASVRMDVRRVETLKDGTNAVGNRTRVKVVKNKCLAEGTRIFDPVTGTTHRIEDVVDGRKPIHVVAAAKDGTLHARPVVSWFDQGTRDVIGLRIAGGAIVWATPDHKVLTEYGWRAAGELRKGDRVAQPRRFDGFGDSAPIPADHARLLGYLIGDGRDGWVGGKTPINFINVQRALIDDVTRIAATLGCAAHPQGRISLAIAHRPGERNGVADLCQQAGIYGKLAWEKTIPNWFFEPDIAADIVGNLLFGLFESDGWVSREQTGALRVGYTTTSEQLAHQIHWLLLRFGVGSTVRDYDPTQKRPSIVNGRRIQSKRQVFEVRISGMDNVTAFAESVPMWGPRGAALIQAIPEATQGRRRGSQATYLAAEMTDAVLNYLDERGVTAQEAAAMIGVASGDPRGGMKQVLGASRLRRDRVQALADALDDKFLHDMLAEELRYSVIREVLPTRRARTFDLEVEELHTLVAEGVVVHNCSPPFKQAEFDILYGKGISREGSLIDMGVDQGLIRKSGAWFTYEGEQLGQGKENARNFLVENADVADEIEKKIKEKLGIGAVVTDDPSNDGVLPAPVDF

[20] = molecular target: Dual specificity tyrosine-phosphorylation-regulated kinase 1A (Rattus norvegicus, UniProt Q63470); format: biochemical, Homo sapiens
P388/ADR = assay: cells; format: functional; conditions: Mus musculus
SN12K1 = assay: cells; format: functional; conditions: Homo sapiens
P388 = assay: cells; format: functional; conditions: Mus musculus
[21] = AlphaScreen signal interference compounds, dose response, artefact control for ARNT-TACC3 interaction inhibitor project, biochemical, luminescence, cherry-pick (AID 651705); format: functional;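 also: AlphaScreen bead proximity signal that flags compounds interfering with the detection technology; potency reflects signal decrease which marks the compound as an assay artifact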
[22] = molecular target: T6, DNA repair protein RAD52 homolog (Homo sapiens, UniProt P43351); format: functional, biochemical
T6 sequence (P43351 whole entry): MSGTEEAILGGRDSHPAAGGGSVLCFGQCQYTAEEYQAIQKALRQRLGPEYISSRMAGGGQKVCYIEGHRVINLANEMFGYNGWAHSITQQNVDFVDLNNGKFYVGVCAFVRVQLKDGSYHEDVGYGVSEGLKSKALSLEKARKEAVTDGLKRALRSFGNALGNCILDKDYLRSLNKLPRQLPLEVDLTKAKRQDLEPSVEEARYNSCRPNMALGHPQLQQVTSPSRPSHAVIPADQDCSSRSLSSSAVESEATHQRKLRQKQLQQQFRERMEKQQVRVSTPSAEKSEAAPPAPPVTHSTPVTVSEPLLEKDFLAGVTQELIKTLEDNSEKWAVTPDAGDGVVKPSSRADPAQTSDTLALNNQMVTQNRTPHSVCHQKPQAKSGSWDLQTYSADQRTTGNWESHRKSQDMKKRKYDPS

Caspase-6 = molecular target: T7, Caspase-6 (Homo sapiens, UniProt P55212); assay: human caspase-6 inhibitors, dose response, biochemical, VEID-R110 fluorescence, cherry-pick (AID 720632)
T7 sequence (P55212 whole entry): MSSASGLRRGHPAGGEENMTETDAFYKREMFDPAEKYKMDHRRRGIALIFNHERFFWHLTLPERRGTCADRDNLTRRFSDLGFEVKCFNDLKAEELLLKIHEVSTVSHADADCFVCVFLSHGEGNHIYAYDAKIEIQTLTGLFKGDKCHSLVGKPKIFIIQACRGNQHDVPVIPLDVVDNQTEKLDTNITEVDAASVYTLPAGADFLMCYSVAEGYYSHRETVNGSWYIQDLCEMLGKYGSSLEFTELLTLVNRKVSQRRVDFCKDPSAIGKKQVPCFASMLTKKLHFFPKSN

[23] = molecular target: Tyrosyl-DNA phosphodiesterase 2 (Homo sapiens, UniProt O95551); assay: human TDP2 enzyme inhibitors, dose response, biochemical, epi absorbance, IC50 (AID 743297)
Tyrosyl-DNA phosphodiesterase 2, sequence (O95551 whole entry): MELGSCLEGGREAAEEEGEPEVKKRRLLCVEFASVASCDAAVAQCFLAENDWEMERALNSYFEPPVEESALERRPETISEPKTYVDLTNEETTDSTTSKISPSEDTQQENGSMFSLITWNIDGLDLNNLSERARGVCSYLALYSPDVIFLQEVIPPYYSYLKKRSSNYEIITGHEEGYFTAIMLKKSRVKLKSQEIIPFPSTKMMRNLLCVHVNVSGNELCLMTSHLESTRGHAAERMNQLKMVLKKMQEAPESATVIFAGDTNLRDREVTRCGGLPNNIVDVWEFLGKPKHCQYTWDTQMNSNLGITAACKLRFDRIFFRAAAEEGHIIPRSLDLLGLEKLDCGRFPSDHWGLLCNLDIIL

Paired box protein Pax-8, sequence (Q06710 whole entry): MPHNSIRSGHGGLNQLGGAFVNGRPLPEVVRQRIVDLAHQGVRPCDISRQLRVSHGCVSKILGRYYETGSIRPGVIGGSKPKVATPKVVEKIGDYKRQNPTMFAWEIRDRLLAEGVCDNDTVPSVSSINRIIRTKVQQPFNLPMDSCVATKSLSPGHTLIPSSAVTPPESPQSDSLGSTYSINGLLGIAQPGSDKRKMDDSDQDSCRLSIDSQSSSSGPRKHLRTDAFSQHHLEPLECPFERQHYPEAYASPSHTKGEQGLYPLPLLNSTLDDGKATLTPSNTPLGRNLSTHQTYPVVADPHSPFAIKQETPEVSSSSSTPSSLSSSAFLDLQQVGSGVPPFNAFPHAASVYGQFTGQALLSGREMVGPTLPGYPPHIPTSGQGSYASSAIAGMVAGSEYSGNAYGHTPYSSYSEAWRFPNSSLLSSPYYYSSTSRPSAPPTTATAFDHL
Endoplasmic reticulum aminopeptidase 1, sequence (Q9NZ08 whole entry, the tested form may be a part): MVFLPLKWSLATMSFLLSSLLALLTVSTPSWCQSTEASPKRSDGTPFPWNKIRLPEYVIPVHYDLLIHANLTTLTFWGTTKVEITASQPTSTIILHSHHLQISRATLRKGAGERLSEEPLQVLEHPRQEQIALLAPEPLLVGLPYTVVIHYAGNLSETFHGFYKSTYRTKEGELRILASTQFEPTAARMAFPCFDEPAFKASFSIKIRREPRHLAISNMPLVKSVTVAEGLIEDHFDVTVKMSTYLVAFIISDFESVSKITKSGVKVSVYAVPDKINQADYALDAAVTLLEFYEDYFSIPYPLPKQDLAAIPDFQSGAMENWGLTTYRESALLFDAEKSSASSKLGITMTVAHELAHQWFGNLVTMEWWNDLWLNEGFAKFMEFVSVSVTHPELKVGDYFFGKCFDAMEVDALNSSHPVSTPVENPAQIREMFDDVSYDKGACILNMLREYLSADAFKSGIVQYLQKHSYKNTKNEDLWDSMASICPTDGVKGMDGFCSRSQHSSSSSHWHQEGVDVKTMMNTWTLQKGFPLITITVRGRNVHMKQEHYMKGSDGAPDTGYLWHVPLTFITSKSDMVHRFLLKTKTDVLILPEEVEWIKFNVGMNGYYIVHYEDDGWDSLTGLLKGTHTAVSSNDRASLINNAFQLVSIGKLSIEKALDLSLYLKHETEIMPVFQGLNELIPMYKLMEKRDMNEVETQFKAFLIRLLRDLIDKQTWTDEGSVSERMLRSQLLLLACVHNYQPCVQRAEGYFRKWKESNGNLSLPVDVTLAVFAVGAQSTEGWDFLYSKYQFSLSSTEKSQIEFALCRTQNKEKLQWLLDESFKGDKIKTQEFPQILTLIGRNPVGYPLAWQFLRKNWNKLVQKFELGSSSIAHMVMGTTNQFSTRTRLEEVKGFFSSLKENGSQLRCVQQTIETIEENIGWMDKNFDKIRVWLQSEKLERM
Disintegrin and metalloproteinase domain-containing protein 17, sequence (P78536 whole entry, the tested form may be a part): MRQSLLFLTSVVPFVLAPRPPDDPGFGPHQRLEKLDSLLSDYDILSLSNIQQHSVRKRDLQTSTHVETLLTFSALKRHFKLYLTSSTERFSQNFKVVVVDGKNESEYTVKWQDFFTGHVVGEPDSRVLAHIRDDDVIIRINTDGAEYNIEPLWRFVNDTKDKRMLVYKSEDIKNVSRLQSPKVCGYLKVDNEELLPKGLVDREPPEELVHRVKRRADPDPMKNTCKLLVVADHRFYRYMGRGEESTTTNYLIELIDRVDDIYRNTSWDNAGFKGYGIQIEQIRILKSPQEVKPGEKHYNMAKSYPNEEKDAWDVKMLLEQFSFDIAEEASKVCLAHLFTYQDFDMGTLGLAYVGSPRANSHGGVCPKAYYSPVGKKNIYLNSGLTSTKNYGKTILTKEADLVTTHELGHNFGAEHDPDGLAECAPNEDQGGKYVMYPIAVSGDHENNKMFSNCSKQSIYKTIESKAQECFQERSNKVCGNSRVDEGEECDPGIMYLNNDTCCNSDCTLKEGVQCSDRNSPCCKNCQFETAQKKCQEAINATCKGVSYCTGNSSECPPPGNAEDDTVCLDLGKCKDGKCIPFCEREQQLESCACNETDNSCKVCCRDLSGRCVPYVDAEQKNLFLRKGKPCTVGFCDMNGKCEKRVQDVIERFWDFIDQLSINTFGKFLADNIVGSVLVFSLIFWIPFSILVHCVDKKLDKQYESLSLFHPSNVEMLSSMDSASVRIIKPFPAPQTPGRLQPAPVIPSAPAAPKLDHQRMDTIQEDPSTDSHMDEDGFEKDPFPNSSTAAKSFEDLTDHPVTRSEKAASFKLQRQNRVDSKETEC

c1ccc(COc2nnc(-c3ccccc3)o2)cc1
IC90 [1]: 8 µM (active) | AC50 [2]: > 52 µM (inactive) | IC90 [3]: 8 µM (active)

COc1ccc2c3c([nH]c2c1)[C@H](CO)N(Cc1ccccc1OC)CC31CN(C)C1
AC50 [4]: 14.9 µM (active)

CCCCCc1nnc(NC(=O)C2=COCCO2)s1
EC50 [5]: > 67.6 µM (inactive)

O=C(c1cc2c(s1)CCCCCC2)N1CCC2(CC1)OCCO2
IC50 [6]: > 69.5 µM (inactive) | IC50 [7]: > 69.5 µM (inactive)

CO[C@H]1CN(C)C(=O)c2cc(NC(=O)Nc3ccc(Cl)c(Cl)c3)ccc2OC[C@@H](C)NC[C@@H]1C
AC50 [8]: 21.6 µM (active) | AC50 [9]: 48 µM (active) | AC50 [10]: > 52 µM (inactive) | AC50 [11]: > 52 µM (inactive)

COc1ccc2nc(C)cc(N/N=C/c3cccc(OC)c3O)c2c1
EC50 [12]: > 120 µM (not active) | EC50 [13]: > 120 µM (not active) | EC50 [14]: 7.76 µM (active) | IC50 [15]: > 20 µM (inactive) | CC50 [16]: 23.4 µM (active) | IC50 [17]: 51.8 µM (active) | AC50 (Paired box protein Pax-8): 12 µM (active) | AC50 [18]: 32.4 µM (active)

COc1cc2c(cc1OC)-c1c3c(cc4c1[C@@H](C2)N(C)CC4)OCO3
AC50 [19]: 26.7 µM (active) | EC50 (Protein RecA): 0.952 µM (active) | AC50 [20]: 2.09 µM (active) | GI50 (P388/ADR): 7.08 µM (inactive) | GI50 (SN12K1): 6.1 µM (inactive) | GI50 (P388): 8.53 µM (inactive) | AC50 [21]: 116 µM (active) | AC50 [22]: 1.18 µM (active) | AC50 (Caspase-6): 5.63 µM (active) | IC50 [23]: 7.83 µM (active)
